Data as given in patent US6932990B2, “Carbohydrate absorption inhibitor and method for manufacturing the same” (Oryza Oil & Fat Chemical Co., Ltd., priority 2000, dated 2005).
Values after ≈ are worked out from the molar mass of the structure shown. Read-outs that look alike come from different tables or passages of the source.

What was measured:
[1] = target: α-glucosidase (acetone powder in the intestinal canal of rat); experiment: α-glucosidase inhibitory activity (4-methylumbelliferyl-α-D-glucoside, fluorometry); type: biochemical
Experimental: Next, α-glucosidase inhibitory activity (%) in regard to the embodiment 1 (evening primrose seed extract) was identified by the following method. As for the α-glucosidase for this measurement, 0.1 mol maleic acid buffer solution (pH 6.0) was added to the acetone powder in the intestinal canal of rat (SIGMA CHEMICAL CO.) and homogenized in ice by using a glass homogenizer, and then centrifugalized supernatant was diluted 20 times. Measuring method is shown below. […] After that, the reaction was suspended by adding 3 ml glycin buffer solution (pH 10.3) and the quantity of the isolated 4-methylumbelliferyl was determined by using a fluorometer (excitation wavelength: 366 nm & fluorescent wavelength: […]). Enzyme activity was calculated based on this determined value and inhibitory activity (%) was calculated by the following formula. […] Inhibitory activity (%)=100−Enzyme activity (%)

[2] = target: T1, α-amylase derived from pancreas of pig (Sus scrofa, UniProt P00690); experiment: Inhibitory activity against α-amylase derived from pancreas of pig (same method); type: biochemical
T1 construct: the α-amylase derived from pancreas of pig; from tissue; host or cells: pig pancreas
T1 sequence (P00690 16-511): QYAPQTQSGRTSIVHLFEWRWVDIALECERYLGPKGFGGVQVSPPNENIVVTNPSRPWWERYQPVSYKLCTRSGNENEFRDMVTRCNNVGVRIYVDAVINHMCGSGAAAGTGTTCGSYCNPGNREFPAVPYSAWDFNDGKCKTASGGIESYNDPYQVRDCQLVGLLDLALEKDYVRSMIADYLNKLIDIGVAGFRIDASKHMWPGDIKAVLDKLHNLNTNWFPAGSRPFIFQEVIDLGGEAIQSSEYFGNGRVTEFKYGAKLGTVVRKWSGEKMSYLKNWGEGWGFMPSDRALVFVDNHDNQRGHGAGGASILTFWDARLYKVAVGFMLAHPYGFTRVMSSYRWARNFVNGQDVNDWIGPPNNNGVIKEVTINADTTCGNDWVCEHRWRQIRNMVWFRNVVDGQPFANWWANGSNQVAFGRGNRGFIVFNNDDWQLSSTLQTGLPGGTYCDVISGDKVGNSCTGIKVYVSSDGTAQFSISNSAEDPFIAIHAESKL

Compound	IC50 (50% inhibitory concentration) against α-glucosidase [1]	IC50 [2]	IC50 ([2]; read-out: IC50 against the α-amylase derived from pancreas of pig (converted))
O=C(O)c1cc(O)c(O)c(O)c1 [Gallic acid]	800 µg/mL (≈ 4700 µM)	2350 µM	
Catechin	800 µg/mL		
O=c1oc2c(O)c(O)cc3c(=O)oc4c(O)c(O)cc1c4c23 [Ellagic acid]	>80 µg/mL		
O=C(OC[C@H]1O[C@@H](OC(=O)c2cc(O)c(O)c(O)c2)[C@H](OC(=O)c2cc(O)c(O)c(O)c2)[C@@H](OC(=O)c2cc(O)c(O)c(O)c2)[C@@H]1OC(=O)c1cc(O)c(O)c(O)c1)c1cc(O)c(O)c(O)c1 [Pentagalloylglucose]			21.3 µM
